In the NIST ThermoML archive (doi:10.1021/acs.jced.8b00729):
± gives the expanded uncertainty stated by the source.

Conditions: Gamma attenuation method

C1C[C@@H]2[C@H]3CC[C@H](C3)[C@@H]2C1 [exo-tetrahydrodicyclopentadiene]
Conditions	mass density [kg/m3]
267.3 K, 1480 kPa, Liquid	961.5 ± 15
267.3 K, 6000 kPa, Liquid	962.3 ± 15
267.9 K, 700 kPa, Liquid	960.4 ± 15
267.9 K, 3060 kPa, Liquid	962.1 ± 15
289.1 K, 6000 kPa, Liquid	952 ± 15
290.2 K, 1480 kPa, Liquid	939.1 ± 15
290.9 K, 700 kPa, Liquid	937.8 ± 15
292.8 K, 3060 kPa, Liquid	940.4 ± 15
307 K, 700 kPa, Liquid	924.7 ± 15
307.5 K, 1480 kPa, Liquid	928.1 ± 15
308.7 K, 3060 kPa, Liquid	930.1 ± 15
309 K, 6000 kPa, Liquid	940.8 ± 15
335.4 K, 6000 kPa, Liquid	918.1 ± 15
336.6 K, 3060 kPa, Liquid	911.5 ± 15
337.1 K, 700 kPa, Liquid	908.7 ± 15
337.2 K, 1480 kPa, Liquid	910.1 ± 15
368.4 K, 700 kPa, Liquid	881.1 ± 15
369.6 K, 1480 kPa, Liquid	884.2 ± 15
371.3 K, 3060 kPa, Liquid	884.3 ± 15
373.9 K, 6000 kPa, Liquid	893.8 ± 15
391.4 K, 6000 kPa, Liquid	883.9 ± 15
391.9 K, 700 kPa, Liquid	861.9 ± 15
394.8 K, 1480 kPa, Liquid	863.2 ± 15
394.8 K, 3060 kPa, Liquid	864.7 ± 15
430.8 K, 6000 kPa, Liquid	850.6 ± 15
431.4 K, 700 kPa, Liquid	824.8 ± 15
431.4 K, 1480 kPa, Liquid	832.6 ± 15
431.4 K, 3060 kPa, Liquid	834.1 ± 15
453.2 K, 3060 kPa, Liquid	820.5 ± 15
453.8 K, 700 kPa, Liquid	801.2 ± 15
454.4 K, 1480 kPa, Liquid	815.4 ± 15
454.6 K, 6000 kPa, Liquid	829.8 ± 15
483.1 K, 1480 kPa, Liquid	796.7 ± 15
483.8 K, 700 kPa, Liquid	779.5 ± 15
485.1 K, 3060 kPa, Liquid	800.4 ± 15
485.9 K, 6000 kPa, Liquid	807 ± 15
510 K, 700 kPa, Liquid	759.3 ± 15
510.1 K, 1480 kPa, Liquid	772.1 ± 16
510.3 K, 3060 kPa, Liquid	783.9 ± 15
512.1 K, 6000 kPa, Liquid	777.4 ± 16
529.9 K, 3060 kPa, Liquid	756 ± 15
530.4 K, 1480 kPa, Liquid	743 ± 15
531.9 K, 6000 kPa, Liquid	752.2 ± 15
532.4 K, 700 kPa, Liquid	737.7 ± 17
562.1 K, 700 kPa, Liquid	646.3 ± 18
563.8 K, 1480 kPa, Liquid	716.9 ± 16
564.1 K, 3060 kPa, Liquid	726.9 ± 16
566.8 K, 6000 kPa, Liquid	719.2 ± 15
603.4 K, 700 kPa, Gas	25.5 ± 5.2
617.6 K, 1480 kPa, Gas	153.4 ± 11
623.8 K, 6000 kPa, Liquid	661.1 ± 16
627.1 K, 3060 kPa, Liquid	633.8 ± 16
651.6 K, 700 kPa, Gas	22.9 ± 5
651.9 K, 3060 kPa, Liquid	590.9 ± 16
652.4 K, 6000 kPa, Liquid	615.5 ± 16
652.9 K, 1480 kPa, Gas	55.3 ± 7.3
681.8 K, 6000 kPa, Liquid	579.7 ± 16
682.7 K, 700 kPa, Gas	29.4 ± 5
683.2 K, 1480 kPa, Gas	57.8 ± 5
685 K, 3060 kPa, Gas	193.2 ± 9.5
714 K, 6000 kPa, Gas	465.2 ± 25
715 K, 3060 kPa, Gas	124.1 ± 7.3
715.8 K, 1480 kPa, Gas	58 ± 5
730.2 K, 700 kPa, Gas	19.5 ± 5
743.7 K, 3060 kPa, Gas	104.8 ± 5.3
743.8 K, 6000 kPa, Gas	256.7 ± 19
744 K, 1480 kPa, Gas	52.4 ± 5
744.7 K, 700 kPa, Gas	19.7 ± 5
771.9 K, 700 kPa, Gas	26.4 ± 5
773.7 K, 1480 kPa, Gas	50.2 ± 5
773.7 K, 6000 kPa, Gas	152.1 ± 8.3
774 K, 3060 kPa, Gas	96.1 ± 5.1
803.3 K, 700 kPa, Gas	24.4 ± 5
803.8 K, 3060 kPa, Gas	87.6 ± 5.1
804 K, 1480 kPa, Gas	47.9 ± 5
804.1 K, 6000 kPa, Gas	142 ± 5.3
833 K, 700 kPa, Gas	25.4 ± 5
833.3 K, 1480 kPa, Gas	52.1 ± 5
833.4 K, 6000 kPa, Gas	120.1 ± 5.2
833.5 K, 3060 kPa, Gas	83.9 ± 5.1
872.2 K, 3060 kPa, Gas	70.8 ± 5.2
872.5 K, 1480 kPa, Gas	46.1 ± 5.1
873.3 K, 700 kPa, Gas	24.4 ± 5
873.4 K, 6000 kPa, Gas	110.1 ± 5.1
